Drawing on patent US7943636B2 (dated 2011), this text covers melting point for 27 molecules.

SMILES strings stand for the structures.

Usually melting point stands for the temperature of the solid-liquid transition.

`CCCn1nc2c(N)nc3ccccc3c2c1CC1(O)CCC1` showed a melting point of 191 to 193 °C.

The molecule `CCn1nc2c(N)nc3ccccc3c2c1CC1(O)CCOCC1` returned a melting point of 253 to 255 °C.

The molecule `CCn1nc2c(N)nc3ccccc3c2c1CC1(O)CCCCC1` gave a melting point of 211.5 to 213 °C.

`CCn1nc2c(N)nc3ccccc3c2c1CC1(O)CCCC1` showed a melting point of 256 to 259 °C.

As for `CCn1nc2c(N)nc3ccccc3c2c1CC1(O)CCC1`, the melting point was 245 to 247 °C.

`CCn1nc2c(N)nc3ccccc3c2c1CC1(O)CCSCC1` displayed a melting point of 251.5 to 255 °C.

The molecule `CCn1nc2c(N)nc3ccccc3c2c1CC1(O)CCN(C(C)=O)CC1` registered a melting point of 231 to 232.5 °C.

`CCn1nc2c(N)nc3ccccc3c2c1CC1(O)CCN(S(C)(=O)=O)CC1` showed a melting point of 268 to 270 °C.

Molecule `CCCNC(=O)N1CCC(O)(Cc2c3c(nn2CC)c(N)nc2ccccc23)CC1` displayed a melting point of 208.5 to 210 °C.

Molecule `CCn1nc2c(N)nc3ccccc3c2c1CC1CCOCC1` registered a melting point of 226 to 228 °C.

Regarding `CCn1nc2c(N)nc3c(c2c1CC1(O)CCCCC1)CCCC3`, the melting point is 232 to 234 °C.

`CCCn1nc2c(N)nc3ccccc3c2c1CC1(O)CCOCC1`: the melting point is 209 to 211 °C.

`Cn1nc2c(N)nc3ccccc3c2c1CC1(F)CCN(S(C)(=O)=O)CC1` yielded a melting point of 283 to 285 °C.

For the molecule `CC(=O)N1CCC(F)(Cc2c3c(nn2C)c(N)nc2ccccc23)CC1`, the melting point lay within 241 to 243 °C.

For `CC(C)NC(=O)N1CCC(F)(Cc2c3c(nn2C)c(N)nc2ccccc23)CC1`, the melting point was 241 to 244 °C.

`CCn1nc2c(N)nc3ccccc3c2c1CC1(F)CCN(S(C)(=O)=O)CC1` showed a melting point of 269 to 271 °C.

`CCn1nc2c(N)nc3ccccc3c2c1CC1(F)CCN(C(C)=O)CC1`: the melting point lay within 228 to 230 °C.

Turning to `CCn1nc2c(N)nc3ccccc3c2c1CC1(F)CCN(C(=O)NC(C)C)CC1`, the melting point lay within 205 to 207 °C.

As to `CCCn1nc2c(N)nc3ccccc3c2c1CC1(F)CCN(S(C)(=O)=O)CC1`, the melting point was 268 to 270 °C (dec.).

For the molecule `CCCn1nc2c(N)nc3ccccc3c2c1CC1(F)CCN(C(=O)NC(C)C)CC1`, the melting point is 227 to 229 °C (dec.).

As for `CCCn1nc2c(N)nc3ccccc3c2c1CC1CCOCC1`, the melting point fell in the range of 218 to 220 °C.

In turn, `CCCn1nc2c(N)nc3ncccc3c2c1CC1CCOCC1` yielded a melting point of 252 to 255 °C.

The molecule `COCCn1nc2c(N)nc3ccccc3c2c1CC1CCOCC1` had a melting point of 189 to 190 °C.

In turn, `COCCn1nc2c(N)nc3ncccc3c2c1CC1CCOCC1` had a melting point of 230 to 233 °C.

`Cn1nc2c(N)nc3ccccc3c2c1CC1(F)CCOCC1` gave a melting point of 252 to 254 °C.

On to `Cn1nc2c(N)nc3ccccc3c2c1CC1(O)CCOCC1`, for which the melting point is 260 to 262 °C (dec.).

The molecule `CCn1nc2c(N)nc3ccccc3c2c1CC1(F)CCOCC1` displayed a melting point of 275 to 277 °C.
